Reference: US9695155B2, “Herbicidal substituted pyrimidinyloxy benzene compounds” (E. I. DU PONT DE NEMOURS AND COMPANY, priority 2013, dated 2017)

Key:
oilseed rape = assay: Test C preemergence; assay type: in vivo, Brassica napus; details: for Oilseed Rape plant response rating: preemergence; for Plant response rating, Oilseed Rape: Preemergence, 31 g ai/ha, scale 0 to 100, 0 no effect, 100 complete control
Method in brief: (§1)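 Plants were kept under greenhouse conditions for 13–15 days following spray. Pre-emergent application went to soil (loam–sand), post-emergent to foliage at 1–4 leaves. Evaluation: visual, percent control against untreated checks.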

corn = assay: Test C preemergence; assay type: in vivo, Zea mays; details: for Corn plant response rating: preemergence; for Plant response rating, Corn: Preemergence, 31 g ai/ha, scale 0 to 100, 0 no effect, 100 complete control
Method in brief: as §1

yellow nutsedge [1] = assay: Test C postemergence; assay type: in vivo, Cyperus esculentus
Method in brief: as §1

galium = assay: Test C preemergence; assay type: in vivo, Galium aparine; details: for Galium plant response rating: preemergence; for Plant response rating, Galium: Preemergence, 31 g ai/ha, scale 0 to 100, 0 no effect, 100 complete control
Method in brief: as §1

morningglory [2] = assay: Test C postemergence; assay type: in vivo, Ipomoea coccinea
Method in brief: as §1

kochia = assay: Test C postemergence; assay type: in vivo, Kochia scoparia; details: for Kochia plant response rating / Plant response rating, Kochia: scale 0 to 100 (0 no effect, 100 complete control)
Method in brief: as §1

rice = assay: Test B flooded paddy test; assay type: in vivo, Oryza sativa; details: Flood, 250 g ai/ha; 0 to 100 scale where 0 is no effect and 100 is complete control
Method in brief: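 Evaluation is visual, against untreated controls, 13 to 15 days after treatment. Before treatment, plants reached the 2-leaf stage; pots were then flooded 3 cm deep, compound was added to the water, and that level was maintained. Ratings run 0 to 100, with 100 meaning complete control.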

wild oat = assay: Test C postemergence; assay type: in vivo, Avena fatua
Method in brief: as §1

morningglory [3] = assay: Test C preemergence; assay type: in vivo, Ipomoea coccinea; details: for Morningglory plant response rating: preemergence; for Plant response rating, Morningglory: Preemergence, 31 g ai/ha, scale 0 to 100, 0 no effect, 100 complete control
Method in brief: as §1

barnyardgrass = assay: Test A preemergence; assay type: in vivo, Echinochloa crus-galli; details: for Plant response rating, Barnyardgrass: 125 g ai/ha, 0 to 100 scale where 0 is no effect and 100 is complete control; for Barnyardgrass plant response rating: 0 to 100 scale, 0 no effect, 100 complete control, approx. 10 days
Method in brief: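 Greenhouse pot test, loam/sand soil. Formulation: non-phytotoxic solvent mix plus surfactant. Pre: directed spray onto soil after sowing. Post: plants at 1–2 leaf, 2–10 cm. Rated visually vs untreated controls at ~10 d, 0 (no effect) to 100 (complete control).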

blackgrass = assay: Test C postemergence; assay type: in vivo, Alopecurus myosuroides; details: for Blackgrass plant response rating / Plant response rating, Blackgrass: scale 0 to 100 (0 no effect, 100 complete control)
Method in brief: as §1

yellow nutsedge [4] = assay: Test C preemergence; assay type: in vivo, Cyperus esculentus; details: for Nutsedge, Yellow plant response rating: preemergence; for Plant response rating, Nutsedge, Yellow: Preemergence, 31 g ai/ha, scale 0 to 100, 0 no effect, 100 complete control
Method in brief: as §1

[5] = 16 g ai/ha, scale 0 to 100 (0 no effect, 100 complete control)
[6] = 62 g ai/ha, scale 0 (no effect) to 100 (complete control)
[7] = 125 g ai/ha, scale 0 (no effect) to 100 (complete control)
[8] = Postemergence, 31 g ai/ha, scale 0 to 100 (0 no effect, 100 complete control), 13 to 15 days
[9] = Postemergence, 62 g ai/ha, scale 0 to 100 (0 no effect, 100 complete control)
[10] = 16 g ai/ha, postemergence, visual rating, 13 to 15 days
[11] = Postemergence, 31 g ai/ha, 13 to 15 days
[12] = 16 g ai/ha, postemergence, 0 is no effect, 100 is complete control
[13] = 31 g ai/ha, postemergence, visual rating, scale 0 to 100 (0 no effect, 100 complete control), 13 to 15 days
[14] = 125 g ai/ha, postemergence, visual rating, scale 0 to 100 (0 no effect, 100 complete control)
[15] = 31 g ai/ha, postemergence, visual rating, 13 to 15 days
[16] = 125 g ai/ha, postemergence, visual rating

CCOc1cnn(-c2c(C#N)cccc2Oc2ncc(F)cn2)c1 [Compound 89]
Oilseed Rape plant response rating (oilseed rape; [5]): 80 | Oilseed Rape plant response rating (oilseed rape; [6]): 95 | Oilseed Rape plant response rating (oilseed rape; [7]): 98 | Plant response rating, Oilseed Rape (oilseed rape): 80 | Corn plant response rating (corn; [5]): 0 | Corn plant response rating (corn; [6]): 0 | Corn plant response rating (corn; [7]): 5 | Plant response rating, Corn (corn): 0 | Plant response rating (0 to 100), Nutsedge, Yellow (yellow nutsedge [1]; 125 g ai/ha, postemergence): 5 | Plant response rating, Nutsedge, Yellow (yellow nutsedge [1]; [8]): 5 | Plant response rating, Nutsedge, Yellow (yellow nutsedge [1]; [9]): 20 | Galium plant response rating (galium; [5]): 30 | Galium plant response rating (galium; [6]): 85 | Galium plant response rating (galium; [7]): 100 | Plant response rating, Galium (galium): 100 | Plant response rating (0 to 100), Morningglory (morningglory [2]; 125 g ai/ha, postemergence): 85 | Plant response rating, Morningglory (morningglory [2]; [8]): 70 | Plant response rating, Morningglory (morningglory [2]; [9]): 55 | Kochia plant response rating (kochia; [10]): 45 | Plant response rating (0 to 100), Kochia (kochia; 125 g ai/ha, postemergence): 50 | Plant response rating, Kochia (kochia; [11]): 50 | Plant response rating, Kochia (kochia; Postemergence, 62 g ai/ha): 60 | Plant response rating, Rice (rice): 20 | Plant response rating (0 to 100), Oat, Wild (wild oat; 125 g ai/ha, postemergence): 15 | Plant response rating, Oat, Wild (wild oat; [8]): 5 | Plant response rating, Oat, Wild (wild oat; [9]): 5 | Morningglory plant response rating (morningglory [3]; [5]): 45 | Morningglory plant response rating (morningglory [3]; [6]): 95 | Morningglory plant response rating (morningglory [3]; [7]): 98 | Plant response rating, Morningglory (morningglory [3]): 35 | Plant response rating, Barnyardgrass (barnyardgrass): 60 | Barnyardgrass plant response rating (barnyardgrass; 500 g ai/ha): 90 | Blackgrass plant response rating (blackgrass; [10]): 0 | Plant response rating (0 to 100), Blackgrass (blackgrass; 125 g ai/ha, postemergence): 5 | Plant response rating, Blackgrass (blackgrass; [11]): 0 | Plant response rating, Blackgrass (blackgrass; Postemergence, 62 g ai/ha): 5 | Nutsedge, Yellow plant response rating (yellow nutsedge [4]; [5]): 0 | Nutsedge, Yellow plant response rating (yellow nutsedge [4]; [6]): 10 | Nutsedge, Yellow plant response rating (yellow nutsedge [4]; [7]): 70 | Plant response rating, Nutsedge, Yellow (yellow nutsedge [4]): 5

FCc1cn(-c2c(F)cccc2Oc2ncc(Cl)cn2)nn1 [Compound 154]
Oilseed Rape plant response rating (oilseed rape; [5]): 98 | Oilseed Rape plant response rating (oilseed rape; [6]): 100 | Oilseed Rape plant response rating (oilseed rape; [7]): 100 | Corn plant response rating (corn; [5]): 5 | Corn plant response rating (corn; [6]): 5 | Corn plant response rating (corn; [7]): 10 | Plant response rating, Corn (corn): 0 | Plant response rating (0 to 100), Nutsedge, Yellow (yellow nutsedge [1]; [12]): 5 | Nutsedge, Yellow plant response rating (yellow nutsedge [1]; [13]): 10 | Plant response rating, Nutsedge, Yellow (yellow nutsedge [1]; [14]): 10 | Plant response rating, Nutsedge, Yellow (yellow nutsedge [1]; [9]): 10 | Galium plant response rating (galium; [5]): 80 | Galium plant response rating (galium; [6]): 95 | Galium plant response rating (galium; [7]): 95 | Plant response rating, Galium (galium): 95 | Plant response rating (0 to 100), Morningglory (morningglory [2]; [12]): 55 | Morningglory plant response rating (morningglory [2]; [13]): 65 | Plant response rating, Morningglory (morningglory [2]; [14]): 80 | Plant response rating, Morningglory (morningglory [2]; [9]): 65 | Plant response rating (0 to 100), Kochia (kochia; [12]): 50 | Kochia plant response rating (kochia; [15]): 50 | Plant response rating, Kochia (kochia; [16]): 80 | Plant response rating, Kochia (kochia; Postemergence, 62 g ai/ha): 80 | Plant response rating, Rice (rice): 10 | Plant response rating (0 to 100), Oat, Wild (wild oat; [12]): 0 | Oat, Wild plant response rating (wild oat; [13]): 0 | Plant response rating, Oat, Wild (wild oat; [14]): 0 | Plant response rating, Oat, Wild (wild oat; [9]): 0 | Morningglory plant response rating (morningglory [3]; [5]): 10 | Morningglory plant response rating (morningglory [3]; [6]): 50 | Morningglory plant response rating (morningglory [3]; [7]): 85 | Barnyardgrass plant response rating (barnyardgrass; 1000 g ai/ha): 100 | Plant response rating (0 to 100), Blackgrass (blackgrass; [12]): 0 | Blackgrass plant response rating (blackgrass; [15]): 0 | Plant response rating, Blackgrass (blackgrass; [16]): 0 | Plant response rating, Blackgrass (blackgrass; Postemergence, 62 g ai/ha): 0 | Nutsedge, Yellow plant response rating (yellow nutsedge [4]; [5]): 0 | Nutsedge, Yellow plant response rating (yellow nutsedge [4]; [6]): 5 | Nutsedge, Yellow plant response rating (yellow nutsedge [4]; [7]): 65

N#Cc1cccc(Oc2ncc(Br)cn2)c1-n1cc(I)cn1 [Compound 88]
Oilseed Rape plant response rating (oilseed rape; [5]): 10 | Oilseed Rape plant response rating (oilseed rape; [6]): 70 | Oilseed Rape plant response rating (oilseed rape; [7]): 100 | Plant response rating, Oilseed Rape (oilseed rape): 100 | Corn plant response rating (corn; [5]): 5 | Corn plant response rating (corn; [6]): 5 | Corn plant response rating (corn; [7]): 15 | Plant response rating, Corn (corn): 5 | Plant response rating (0 to 100), Nutsedge, Yellow (yellow nutsedge [1]; 125 g ai/ha, postemergence): 10 | Plant response rating, Nutsedge, Yellow (yellow nutsedge [1]; [8]): 5 | Plant response rating, Nutsedge, Yellow (yellow nutsedge [1]; [9]): 10 | Galium plant response rating (galium; [5]): 0 | Galium plant response rating (galium; [6]): 90 | Galium plant response rating (galium; [7]): 80 | Plant response rating, Galium (galium): 50 | Plant response rating (0 to 100), Morningglory (morningglory [2]; 125 g ai/ha, postemergence): 95 | Plant response rating, Morningglory (morningglory [2]; [8]): 90 | Plant response rating, Morningglory (morningglory [2]; [9]): 85 | Kochia plant response rating (kochia; [10]): 90 | Plant response rating (0 to 100), Kochia (kochia; 125 g ai/ha, postemergence): 100 | Plant response rating, Kochia (kochia; [11]): 95 | Plant response rating, Kochia (kochia; Postemergence, 62 g ai/ha): 95 | Plant response rating, Rice (rice): 0 | Plant response rating (0 to 100), Oat, Wild (wild oat; 125 g ai/ha, postemergence): 10 | Plant response rating, Oat, Wild (wild oat; [8]): 5 | Plant response rating, Oat, Wild (wild oat; [9]): 10 | Morningglory plant response rating (morningglory [3]; [5]): 0 | Morningglory plant response rating (morningglory [3]; [6]): 40 | Morningglory plant response rating (morningglory [3]; [7]): 90 | Plant response rating, Morningglory (morningglory [3]): 5 | Plant response rating, Barnyardgrass (barnyardgrass): 60 | Barnyardgrass plant response rating (barnyardgrass; 500 g ai/ha): 80 | Blackgrass plant response rating (blackgrass; [10]): 5 | Plant response rating (0 to 100), Blackgrass (blackgrass; 125 g ai/ha, postemergence): 10 | Plant response rating, Blackgrass (blackgrass; [11]): 10 | Plant response rating, Blackgrass (blackgrass; Postemergence, 62 g ai/ha): 10 | Nutsedge, Yellow plant response rating (yellow nutsedge [4]; [5]): 0 | Nutsedge, Yellow plant response rating (yellow nutsedge [4]; [6]): 5 | Nutsedge, Yellow plant response rating (yellow nutsedge [4]; [7]): 5 | Plant response rating, Nutsedge, Yellow (yellow nutsedge [4]): 0
